Measurements published in publication PMC6934184, “Selective DNA-PKcs inhibition extends the therapeutic index of localized radiotherapy and chemotherapy” (The Journal of Clinical Investigation, 2019).

Experiments:
PI3K = assay: IGF-1-stimulated phospho-AKT Ser473 in MCF7 cells, Western blot; format: cell-based, Human; details: up to 10 μM, 50 ng/mL IGF-1, 30 min
Protocol: Exponentially growing MCF7 cells were exposed to a range of concentrations of NU5455 and NU7441 (0.03–10 μM) for 1 hour. To assess the ability of NU5455 and NU7441 to inhibit autophosphorylation of DNA-PKcs at Ser2056, cells were treated with 10 Gy irradiation and incubated for 30 minutes. Alternatively, to investigate the effects of NU5455 and NU7441 against PI3K-dependent phosphorylation of AKT at Ser473, cells were treated with 50 ng/mL insulin-like growth factor-1 (IGF-1; Invitrogen) for 30 minutes. Cell lysates were prepared for the detection of p–DNA-PKcs Ser2056 and total DNA-PKcs, or p–AKT Ser473 and total AKT, respectively, using Western blotting. […]
Protein lysates were quantified using the Pierce BCA Protein Assay (ThermoFisher). […]
Membranes were then washed in TBST and incubated with HRP-conjugated goat anti-mouse or anti-rabbit antibodies (P0447 and P0448 respectively, Dako) in 5% (w/v) milk/TBST at room temperature for 1-2 hours. Conjugates were detected using Clarity Western ECL Substrate (BioRad) and chemiluminescence imaged using the Fuji LAS-3000 Luminescent Image Analyzer System (Fujifilm). […]
Alternatively, basal pAKT Ser473 levels were subtracted from all other pAKT bands, and pAKT band intensity calculated relative to total AKT expression and given as a percentage relative to IGF-1 stimulated, DMSO-treated cells. […]

[1] = system: NHEJ-mediated DSB repair in HEK293T cells; assay: NHEJ plasmid repair assay; format: cell-based, Human; details: 1 μM; 24 hours; AfeI or ScaI linearized plasmid
Protocol: The ability of NU5455 to impair the nonhomologous end joining (NHEJ) ability of cells was assessed using a modified version of a DNA repair assay developed by Nagel et al. ([52]), which measures the repair of a plasmid encoding blue fluorescent protein (BFP) and GFP linearized by either an ScaI or an AfeI restriction digestion. Full experimental details are given in Supplemental Methods.
Membranes were then washed in TBST and incubated with HRP-conjugated goat anti-mouse or anti-rabbit antibodies (P0447 and P0448 respectively, Dako) in 5% (w/v) milk/TBST at room temperature for 1-2 hours. Conjugates were detected using Clarity Western ECL Substrate (BioRad) and chemiluminescence imaged using the Fuji LAS-3000 Luminescent Image Analyzer System (Fujifilm).
Densitometry analysis was performed using AIDA Image Analyzer software (Raytest). The intensity of all bands was determined following a background subtraction, and the level of pDNA-PKcs stimulation determined by subtracting basal unstimulated pDNA-PKcs Ser2056 levels. pDNA-PKcs Ser2056 band intensity was calculated relative to total DNA-PKcs band intensity, and is given as percentage expression relative to irradiated, DMSO-treated cells. […]
violet laser with 440/50 emission filter to detect blue fluorescence using the VL1 channel. […]
Data were analyzed by FCS Express 6 Flow Research Edition (De Novo Software). […]

## CN(C(=O)CN1CCOCC1)c1ccc2sc3c(-c4cccc5c(=O)cc(N6CC7CCC(C6)O7)oc45)cccc3c2c1 [NU5455]
PI3K
  inhibition of IGF-stimulated activation of AKT: did not inhibit
[1]
  repair of DNA-DSBs (NHEJ plasmid repair): inhibit the repair of DNA-DSBs
